{
  "source": "patent US20180071242A1",
  "about": "“SUBSTITUTED ACYLANILIDES AND METHODS OF USE THEREOF” (University of Tennessee Research Foundation, priority 2006, published 2018)",
  "key": {"[1]": {"target": "T1, Recombinant androgen receptor ligand binding domain (AR LBD) (Homo sapiens, UniProt P10275)", "T1 sequence (P10275 669-900 limits assumed)": "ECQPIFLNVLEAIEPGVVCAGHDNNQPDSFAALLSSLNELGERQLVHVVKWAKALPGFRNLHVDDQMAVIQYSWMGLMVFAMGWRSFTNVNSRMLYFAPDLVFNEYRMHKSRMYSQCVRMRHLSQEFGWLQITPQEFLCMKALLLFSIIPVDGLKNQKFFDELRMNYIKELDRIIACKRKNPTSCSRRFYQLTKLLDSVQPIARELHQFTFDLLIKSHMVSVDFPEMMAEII", "assay": "In vitro competitive radioligand binding assay with [3H]mibolerone", "description": "Following incubation, plates were harvested with GF/B filters on the Unifilter-96 Harvester (PerkinElmer) and washed three times with ice-cold buffer B (60 mM Tris, pH 7.2). The filter plates were dried at RT, then 36 μl Microscint-O® cocktail was added to each well and sealed with TopSeal-A®. The receptor bound radioligand was then determined with the TopCount® NXT Microplate Scintillation Counter (PerkinElmer).\nThe equilibrium binding constant (Ki) of each compound was then determined with the following equation:"}, "[2]": {"test_system": "DMD (−/−) UTRN (+/+) mice", "assay": "mdx mouse model of Duchenne muscular dystrophy"}, "[3]": {"test_system": "DMD (−/−) UTRN (−/−) mice", "assay": "Double knockout mouse model of Duchenne muscular dystrophy", "settings": "10 mg/kg/day, data cumulative across the SARM groups"}, "[4]": {"assay": "Metabolic stability measured in human liver microsomes", "format": "in vitro ADME", "settings": "for microsomal CLint at 0.6 μM: human, pH 7.4, human liver microsomes", "experimental": "Metabolic stability assays were performed in order to assess the in vitro half-life of the S-isomer of compound of formula (I) [S-(I)] when incubated with human liver microsomes. Intrinsic clearance values were extrapolated. Permeability of the compound across human, intestinal epithelial monolayers (Caco-2 cells) was assessed as a measure of intestinal permeability as well as an indicator of efflux potential. Caco-2 cells are often used as an early screening surrogate for oral bioavailability. Microsomal half-life can be converted to in vitro clearance values as a means to predict hepatic intrinsic clearance. Intrinsic clearance is defined as the functional ability of the liver to metabolize a drug or other compound.\nS-(I) in this study was incubated at a final concentration of 0.6 μM. Microsome reactions were performed under either Phase I or “Phase I and II” conditions, where indicated. Compound stocks (10 mM ACN) were initially diluted to a concentration of 60 μM (in 60% ACN/H2O) resulting in a “working stock” solution of 100×. Human liver microsomes were utilized at a final concentration of […]. Duplicate wells were used for each time point (0, 6, 10, 30, and 60 minutes). Reactions were carried out at 37° C. in a shaking water bath, and the final concentration of solvent was kept constant at 0.6%. The final volume for each reaction was 600 μl, comprised of […] of 100 mM KPO4 buffer, (pH 7.4); 12.6 μl of HLM (from a 20 mg/ml stock); 6 μl of 100× “working stock” drug compound, and 126 μl of NRS “master mix” solution. At each time point, 100 μl of reaction was removed and added to a sample well containing 100 μl of ice-cold, 100% ACN (plus internal standards), to stop the reaction. The NRS “master mix” is a solution of glucose 6-phosphate dehydrogenase, NADP^+, MgCl2, and glucose 6-phosphate, prepared per manufacturer's instructions (BD Biosciences, Waltham, Mass.). Each […] stock of NRS “master mix” solution contains 3.8 ml H2O, 1.0 ml solution “A” (Cat. #461220), and 0.2 ml solution “B” (Cat. #461200). Human liver microsomes (lot #0610279, Xenotech Corp.) represented a pool of 60 donors.\nSamples were centrifuged at 3,000 rpm for 10 minutes at 4° C. to remove debris and precipitated protein. […] The concentration of parent drug remaining in each well (expressed as percent remaining versus Time ‘0’, at the beginning of the reaction) was measured by LC/MS, as detailed below.\nAll samples were analyzed on the MDS/Sciex API4000 Q Trap system with electrospray ionization (ESI) in the positive or negative SIM mode, depending on the compounds. […] The percentage of parent drug compound remaining after each time point was determined relative to the initial measured concentration at the beginning of the reaction (T0 min). […]"}, "[5]": {"settings": "castrated mdx mice, 10 mg/kg/day subcutaneously, 12 weeks"}, "[6]": {"settings": "castrated mdx mice, 10 mg/kg/day subcutaneously, 12 weeks, 10 mg/kg/day"}},
  "note": "pKi: −log10 of the molar value. Entries after “also recorded” stand apart in the source; their conditions may differ. Where two headings read alike, the source gives them in different places.",
  "data": [
    {"smiles": "C[C@](O)(COc1ccc(C#N)cc1)C(=O)Nc1ccc(C#N)c(Cl)c1", "note": "[S-(I), (S)—N-(3-chloro-4-cyanophenyl)-3-(4-cyanophenoxy)-2-hydroxy-2-methylpropanamide]", "values": [
      {"measurement": "pKi", "setting": "[1]", "value": 7.43},
      {"measurement": "Fat mass (in words)", "setting": "[2]; [5]", "value": "decrease"},
      {"measurement": "Grip strength (in words)", "setting": "[2]; [5]", "value": "significant increase"},
      {"measurement": "Body weight (in words)", "setting": "[2]; [6]", "value": "increased; also recorded: significant increase"},
      {"measurement": "Lean [muscle] mass (in words)", "setting": "[2]; [6]", "value": "increased; also recorded: significant increase"},
      {"measurement": "Body weight (in words)", "setting": "[2]; intact mdx mice", "value": "increased"},
      {"measurement": "Lean mass (in words)", "setting": "[2]; intact mdx mice", "value": "increased"},
      {"measurement": "Ability to be ambulatory (in words)", "setting": "[3]", "value": "enhanced the ability of these mice to be ambulatory"},
      {"measurement": "Deterioration of body weight (in words)", "setting": "[3]", "value": "delayed the deterioration"},
      {"measurement": "Deterioration of grip strength (in words)", "setting": "[3]", "value": "delayed the deterioration"},
      {"measurement": "Deterioration of lean mass (in words)", "setting": "[3]", "value": "delayed the deterioration"},
      {"measurement": "Half Life (minutes) Phase I only", "setting": "[4]; Phase I only", "value": "Stable"},
      {"measurement": "microsomal CLint at 0.6 μM", "setting": "[4]; Phase I + II, read-out: CLint (μl/min/mg) Phase I + II", "value": 2, "unit": "µL/min/mg"},
      {"measurement": "microsomal CLint at 0.6 μM", "setting": "[4]; Phase I only, read-out: CLint (μl/min/mg) Phase I only", "value": "< 1", "unit": "µL/min/mg"},
      {"measurement": "half-life at 0.6 μM", "setting": "[4]; pH 7.4, Phase I + II", "value": 349, "unit": "min"}
    ]}
  ]
}
